Measurements as given in ChEMBL document CHEMBL1817634, “One-pot synthesis of pyrazoline derivatised carbazoles as antitubercular, anticancer agents, their DNA cleavage and antioxidant activities” (2011).
Converted amounts (≈) assume the structure as drawn. The source made the active and inactive calls. No cut-off for these calls is given here.

What was measured:
[1] = test system: Mycobacterium tuberculosis; assay: Antitubercular activity against Mycobacterium tuberculosis H37Rv after 3 weeks by turbidity assay; assay type: functional; details: 504 h
A498 [2] = assay: Cytotoxicity against human A498 cells; assay type: functional
A549 [3] = assay: Anticancer activity against human A549 cells assessed as cell growth at 40 ug/mL by sulforhodamine B assay; assay type: functional; details: read-out: Activity
A498 [4] = assay: Anticancer activity against human A498 cells assessed as cell growth at 10 ug/mL by sulforhodamine B assay; assay type: functional; details: read-out: Activity
A549 [5] = assay: Cytotoxicity against human A549 cells; assay type: functional
A549 [6] = assay: Anticancer activity against human A549 cells assessed as cell growth at 20 ug/mL by sulforhodamine B assay; assay type: functional; details: read-out: Activity
A498 [7] = assay: Anticancer activity against human A498 cells assessed as cell growth at 20 ug/mL by sulforhodamine B assay; assay type: functional; details: read-out: Activity
A498 [8] = assay: Anticancer activity against human A498 cells assessed as cell growth at 80 ug/mL by sulforhodamine B assay; assay type: functional; details: read-out: Activity
A498 [9] = assay: Anticancer activity against human A498 cells assessed as cell growth at 40 ug/mL by sulforhodamine B assay; assay type: functional; details: read-out: Activity
A549 [10] = assay: Anticancer activity against human A549 cells assessed as cell growth at 10 ug/mL by sulforhodamine B assay; assay type: functional; details: read-out: Activity
A549 [11] = assay: Anticancer activity against human A549 cells assessed as cell growth at 80 ug/mL by sulforhodamine B assay; assay type: functional; details: read-out: Activity
[12] = Antioxidant activity assessed as potassium ferric cyanide reducing power at 100 ug after 20 mins by spectrophotometry; assay type: functional
[13] = Antioxidant activity assessed as potassium ferric cyanide reducing power at 50 ug after 20 mins by spectrophotometry; assay type: functional
Nucleic Acid = assay: Induction of Escherichia coli DNA cleavage at 100 ug after 2 hrs by agarose gel electrophoresis; assay type: nucleic-acid assay
[14] = Antioxidant activity assessed as potassium ferric cyanide reducing power at 10 ug after 20 mins by spectrophotometry; assay type: functional

Row | Compound | MIC [1] | GI50 (A498 [2]) | TGI (A498 [2]) | growth at 40 µg/mL (A549 [3]) | growth at 10 µg/mL (A498 [4]) | GI50 (A549 [5]) | TGI (A549 [5]) | growth at 20 µg/mL (A549 [6]) | growth at 20 µg/mL (A498 [7]) | growth at 80 µg/mL (A498 [8]) | growth at 40 µg/mL (A498 [9]) | growth at 10 µg/mL (A549 [10]) | growth at 80 µg/mL (A549 [11]) | LC50 (A498 [2]) | reducing power [12] | LC50 (A549 [5]) | reducing power [13] | Activity (Nucleic Acid) | reducing power [14]
1 | NC(=O)c1cnccn1 [PYRAZINAMIDE] | 10 µg/mL (≈ 81.2 µM) |  |  |  |  |  |  |  |  |  |  |  |  |  |  |  |  |  | 
2 | COc1cccc2c1C(=O)c1c(O)c3c(c(O)c1C2=O)C[C@@](O)(C(=O)CO)C[C@@H]3O[C@H]1C[C@H](N)[C@H](O)[C@H](C)O1 [DOXORUBICIN] |  | < 10 µg/mL | 32.4 µg/mL (≈ 59.6 µM) | -39.5% | 10.7% | < 10 µg/mL | 41.3 µg/mL (≈ 76 µM) | 8.2% | 8.2% | -66.9% | -39.5% | 10.7% | -66.9% |  |  |  |  |  | 
3 | C(=C\C1CC(c2ccc3[nH]c4c(c3c2)CCCC4)=NN1)/c1ccccc1 (stereo not given) | 25 µg/mL (≈ 73.2 µM) | 57 µg/mL (≈ 167 µM) | > 80 µg/mL | 88.4% | 99.5% | 54 µg/mL (≈ 158 µM) | > 80 µg/mL | 94.8% | 99.7% | 6% | 95.7% | 98.8% | 48.7% | > 80 µg/mL | 0.67 absorbance | > 80 µg/mL | 0.47 absorbance | inactive | 0.19 absorbance
4 | Oc1ccc(C2CC(c3ccc4[nH]c5c(c4c3)CCCC5)=NN2)cc1 (stereo not given) | 3.5 µg/mL (≈ 10.6 µM) | 74.5 µg/mL (≈ 225 µM) | > 70 µg/mL | 67.1% | 83% | 76.5 µg/mL (≈ 231 µM) | > 70 µg/mL | 74.6% | 86% | 3.9% | 83% | 83.2% | 11.5% | > 70 µg/mL | 0.25 absorbance | > 70 µg/mL | 0.14 absorbance | inactive | 0.125 absorbance
5 | c1ccc(C2CC(c3ccc4[nH]c5c(c4c3)CCCC5)=NN2)cc1 (stereo not given) | 12 µg/mL (≈ 38 µM) | 55.6 µg/mL (≈ 176 µM) | > 80 µg/mL | 88.4% | 100% | > 80 µg/mL | > 80 µg/mL | 94.8% | 99.1% | 3.9% | 95.9% | 98.8% | 48.7% | > 80 µg/mL | 0.126 absorbance | > 80 µg/mL | 0.102 absorbance | inactive | 0.01 absorbance
6 | CN[C@@H]1[C@H](O[C@H]2[C@H](O[C@H]3[C@H](O)[C@@H](O)[C@H](N=C(N)N)[C@@H](O)[C@@H]3N=C(N)N)O[C@@H](C)[C@]2(O)C=O)O[C@@H](CO)[C@H](O)[C@H]1O [STREPTOMYCIN] | 7.5 µg/mL (≈ 12.9 µM) |  |  |  |  |  |  |  |  |  |  |  |  |  |  |  |  |  | 
7 | CC1CC(c2ccc3[nH]c4c(c3c2)CCCC4)=NN1 (stereo not given) | 3.5 µg/mL (≈ 13.8 µM) | 55.2 µg/mL (≈ 218 µM) | > 70 µg/mL | 75.7% | 80% | 52.5 µg/mL (≈ 207 µM) | > 70 µg/mL | 81.6% | 82% | 4% | 85% | 90.2% | 12.1% | > 70 µg/mL | 0.13 absorbance | > 70 µg/mL | 0.105 absorbance | inactive | 0.02 absorbance
